Where a chain is given by its changes, count along the chain named. Each block holds one compound with its values, some of them ahead of it.
Experiments:
α-SMA promoter [1] = test: TGF-β1-induced α-SMA-luciferase reporter in CFs transfected with pcDNA3-sNRF or control vector; format: cell-based; conditions: for inhibitory effect on sNRF action (loss of NP inhibition of α-SMA-luciferase): sNRF-transfected CFs, TGF-β1 + ANP, 24 hours
Protocol: TGF-β1 signaling is required for angiotensin effects in the heart, and NPs oppose TGF-β1 effects in CFs. […] CFs were transiently transfected with the α-SMA-luciferase vector and pcDNA3 control vector or pcDNA3-sNRF, then treated for 24 hours with TGF-β1, ANP, and the angiotensin-converting enzyme inhibitor captopril (CAP) or the angiotensin receptor-1 blocker losartan (LOS).

[2] = system: cardiac fibroblasts (CFs); test: bFGF-induced α-SMA protein expression in CFs (Western blot); format: cell-based, rat; conditions: cells with insertless vector; 10 ng/ml FGF 48 hours; 100 nM ANP
Protocol: (§1) NP's ability to inhibit growth factor-induced CF differentiation into myofibroblasts was determined as follows. CFs were transiently transfected with insertless pcDNA3 vector or pcDNA3 encoding sNRF^(806-900) (see Example 7). The transfected CFs were then treated for 48 hours with 10 ng/ml basic fibroblast growth factor (FGF; Sigma-Aldrich #F0291) in the presence or absence of 100 nM ANP. Alpha-smooth muscle actin (α-SMA) protein expression, the principal marker of CF differentiation, was assessed by Western blotting and immunofluorescence microscopy. Vimentin staining was used as a loading control because it is expressed equally in fibroblasts and transdifferentiated myofibroblasts.

α-SMA promoter [3] = test: α-SMA-luciferase reporter in neonatal rat CFs with daily TGF-β1, model of NP resistance; format: cell-based
Protocol: Neonatal rat CFs were transfected with an α-SMA-luciferase reporter construct driven by TGF-β1 induction of the α-SMA promoter. After 24 hours, cells were treated daily with […] TGF-β1 for up to 4 days. On each successive day, some of the cells were treated with NP (ANP, 100 nM), and luciferase activity measured.

[4] = system: cardiac fibroblasts (CFs); test: Vimentin localisation in CFs by immunofluorescence microscopy; format: cell-based, rat; conditions: in the presence of ANP
Protocol: as §1
For the immunofluorescence microscopy, slide wells were treated as described in Example 7 and incubated with anti-α-SMA and anti-vimentin antibody as well as phalloidin to stain for actin. Briefly, cells were rinsed twice with phosphate-buffered saline (PBS) and fixed with 3.7% formaldehyde in PBS for 10 minutes. After fixation, cells were rinsed with PBS and permeabilized with 0.3% Triton X-100 in PBS for 10 minutes and blocked for 1 hour in 1% horse serum, 0.2% bovine serum albumin in PBS. Cells were then incubated with primary α-SMA antibody (ABCAM ab7817) and primary vimentin antibody (ABCAM ab7783) diluted in blocking solution for 1 hour and washed three times with blocking solution for 5 minutes. […]

PKG [5] = target: T1, PKG (Rattus norvegicus, UniProt A9LNM8); test: Co-immunoprecipitation of PKG with FLAG-tagged NPRA fragments in primary CFs; format: binding; conditions: 5'-FLAG-tagged fragment in transfected CFs, anti-FLAG M2 affinity gel
T1 construct: endogenous in cells; host or cells: primary neonatal rat cardiac fibroblasts transfected with 5'-FLAG sNRF fragments
T1 sequence (A9LNM8 1-671): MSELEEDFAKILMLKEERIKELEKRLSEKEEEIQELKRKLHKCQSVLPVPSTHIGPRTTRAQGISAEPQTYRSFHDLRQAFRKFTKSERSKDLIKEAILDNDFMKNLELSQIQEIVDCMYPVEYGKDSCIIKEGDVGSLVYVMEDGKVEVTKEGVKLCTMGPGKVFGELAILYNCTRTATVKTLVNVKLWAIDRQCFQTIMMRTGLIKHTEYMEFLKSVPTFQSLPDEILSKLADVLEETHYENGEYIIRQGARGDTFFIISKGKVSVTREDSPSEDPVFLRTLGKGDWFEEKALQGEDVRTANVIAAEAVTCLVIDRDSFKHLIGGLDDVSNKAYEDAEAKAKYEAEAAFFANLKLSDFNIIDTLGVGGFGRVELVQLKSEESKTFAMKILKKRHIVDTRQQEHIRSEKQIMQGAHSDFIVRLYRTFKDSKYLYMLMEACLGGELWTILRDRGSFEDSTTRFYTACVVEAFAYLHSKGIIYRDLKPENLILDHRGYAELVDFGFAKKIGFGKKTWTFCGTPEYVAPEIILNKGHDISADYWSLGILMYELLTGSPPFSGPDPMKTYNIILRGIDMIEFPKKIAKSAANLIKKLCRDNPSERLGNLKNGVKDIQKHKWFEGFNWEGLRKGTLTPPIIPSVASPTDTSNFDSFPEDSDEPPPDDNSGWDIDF
Protocol: Neonatal rat ventricular fibroblasts (CFs) were cultured from 1 to 2-day-old Harlan Sprague-Dawley rats as described previously (Simpson, Circulation Res. 56:884-94, 1985). Briefly, ventricles were dissected free from atria and quartered. Following dissociation in ADS buffer containing 1.5 mg/ml trypsin (Gibco #27250-018) and 1% DNase solution (2 mg/ml DNase type II, 150 mM NaCl) with serum neutralization the collected cells were pre-incubated in media at 37° C. for 90 minutes to allow CF attachment to the bottom of culture dishes. CFs were incubated in plating media for 48 hours, divided into 6-well culture plates or dual-well chamberslides, and grown to 50% confluency in DMEM with 10% FBS prior to use.
CFs were transiently transfected with nucleic acid molecules encoding sNRF^(806-1061), sNRF^(806-900), or sNRF^(806-860) using routine methods. Briefly, PCR-generated, 5′-FLAG epitope-tagged sNRFs were subcloned into the BamHI and EcoRI sites of pCDNA3 (Invitrogen) and sequenced to verify construction accuracy. […]
The ability of the NPRA fragments to immunoprecipitate PKG was determined in the primary CF cells transfected with the 5′-FLAG epitope-tagged NPRA fragments as follows. […] Bound antibody was detected with chemiluminescent substrate (Western Lightning ECL, PerkinElmer Life Sciences).

PKG [6] = target: T2, PKG (Homo sapiens, UniProt Q13976); test: Immunofluorescence of NP-induced PKG membrane translocation in HEK-NPRA cells; format: cell-based; conditions: fragment expressed in HEK-NPRA cells; ANP 100 nM 15 minutes
T2 construct: endogenous in cells; host or cells: HEK293 stably over-expressing FLAG-NPRA (HEK-NPRA)
T2 sequence (Q13976 1-671): T1 sequence (A9LNM8 1-671) with D227E, K265T, S267N, E291G, E499K, S586N, S656N
Protocol: HEK-NPRA cells were transiently transfected with insertless pcDNA3 plasmid vector or pcDNA3-sNRF^(806-1061). All slide wells were treated with atrial natriuretic peptide (ANP) (100 nM; Sigma-Aldrich #A1663) for 15 minutes. Cells were decorated with monoclonal flag antibody specific for FLAG-NPRA (red) and polyclonal PKG antibody (green). Overlapping regions of PKG and NPRA appeared yellow-orange. PKG staining was absent when anti-PKG antibody was pre-adsorbed with recombinant PKG protein (Calbiochem).

expression of the luciferase reporter construct driven by TGF-β1 induction of the α-SMA promoter (α-SMA promoter [3]; NP (ANP, 100 nM) 24 hours, 100 nM TGF-β1): almost completely inhibited
Compound: CC[C@H](C)[C@@H]1NC(=O)[C@H](CCCNC(=N)N)NC(=O)[C@H](CC(=O)O)NC(=O)[C@H](CCSC)NC(=O)[C@H](CCCNC(=N)N)NC(=O)CNC(=O)CNC(=O)[C@H](Cc2ccccc2)NC(=O)[C@@H](NC(=O)[C@H](CO)NC(=O)[C@H](CO)NC(=O)[C@H](CCCNC(=N)N)NC(=O)[C@H](CCCNC(=N)N)NC(=O)[C@H](CC(C)C)NC(=O)[C@@H](N)CO)CSSC[C@@H](C(=O)N[C@@H](CC(N)=O)C(=O)N[C@@H](CO)C(=O)N[C@@H](Cc2ccccc2)C(=O)N[C@@H](CCCNC(=N)N)C(=O)N[C@@H](Cc2ccc(O)cc2)C(=O)O)NC(=O)CNC(=O)[C@H](CC(C)C)NC(=O)CNC(=O)[C@H](CO)NC(=O)[C@H](CCC(N)=O)NC(=O)[C@H](C)NC(=O)CNC1=O [ANP, atrial natriuretic peptide]
TGF-β1-induced α-SMA-luciferase expression (α-SMA promoter [1]; cells that do not over-express sNRF): inhibits TGF-β1-induced α-SMA-luciferase expression | bFGF-induced α-SMA protein expression [2]: inhibited bFGF-induced α-SMA protein expression | NP's inhibitory effect on TGF-β1-induced α-SMA-luciferase (α-SMA promoter [3]; progressively longer periods of NP treatment, up to 4 days): steady decline in NP's inhibitory effects | nuclear to cytosolic translocation of vimentin [4]: nuclear to cytosolic translocation of vimentin was observed

inhibitory effect on sNRF action (loss of NP inhibition of α-SMA-luciferase) (α-SMA promoter [1]): no significant inhibitory effect
Compound: C[C@H](CS)C(=O)N1CCC[C@H]1C(=O)O [captopril]

inhibitory effect on sNRF action (loss of NP inhibition of α-SMA-luciferase) (α-SMA promoter [1]): no significant inhibitory effect
Compound: CCCCc1nc(Cl)c(CO)n1Cc1ccc(-c2ccccc2-c2nn[nH]n2)cc1 [losartan]
NP-inhibition of TGF-β1 induction of α-SMA-luciferase (α-SMA promoter [1]; non-sNRF transfected cells): blocks NP-inhibition of TGF-β1 induction of α-SMA-luciferase

co-immunoprecipitation of PKG (PKG [5]): co-immunoprecipitated PKG
Compound: sNRF^(806-1061): intracellular NPRA fragment, residues 806-1061, with hinge domain and C-terminal guanylyl cyclase domain; expressed FLAG-tagged
translocation of cytosolic PKG to the plasma membrane (PKG [6]): inhibited translocation of cytosolic PKG to the plasma membrane

From patent publication US7943296B2, “Methods of screening using a natriuretic peptide receptor” (Oregon Health & Science University, priority 2005, dated 2011)
